Results on 1 compound are retold here after patent US20240238251A9, “A Composition Comprising Heterocyclic Compounds, Preparation Method and Application Thereof” (SHANGHAI YASHENG PHARMACEUTICAL TECHNOLOGY CO., LTD., priority 2020, published 2024).

A short description of the data set: Pharmacokinetics after oral administration in dogs. The data set is classed as in vivo, beagle dogs. On the procedure: After fully grinding and mixing the samples with PEG400 (the concentration in the sample solution was 5%), a small amount (about 2 ml) of 0.2% HPMC aqueous solution was added to grind into a uniform paste until there were no large particles. Under the condition of continuous grinding, 0.2% HPMC aqueous solution was added to a sufficient amount and maintained stirring (800 RPM) for 5 minutes. After sealing the sample solution container with sealing film, it was placed in the ultrasonic instrument (40 kHz) for ultrasonic for 20 minutes (to avoid the rise of ultrasonic medium water temperature during ultrasonic process, the water temperature was controlled within 40° C.); Stopped the ultrasound, mixed the suspension evenly before use (stirring for about 3 minutes), and then sampled immediately (the concentration of the sample was 6 mg/ml).
Test method: three male beagle dogs were selected and divided into test article 1 (APG-115 particles) group and test article 2 (APG-115 hydrate) group. Each group received single oral capsule administration: after the administration of test article 1, after an 8-day cleaning period, the group name was changed to test article 2, and so on.
Blood samples were collected and plasma was separated at 0.5, 1.0, 2.0, 4.0, 6.0, 10, 24, 48, 72, 96, 120, 144 and 168 hours before and after each round of administration. All plasma samples were mailed to the client for testing. The concentration of APG-115 in dog plasma was analyzed by LC-MS/Ms. The lower limit of quantification of the method was 50 ng/ml. The non compartmental model method (NCA) of the metabolic kinetic data analysis software winnonlin 8.0.0.3176 was used to analyze the plasma concentration data and calculate the pharmacokinetic parameters. See table 21 to evaluate the kinetic characteristics of APG-115 in animals after administration.

Setting [1] is: dog, plasma, male beagle dogs, single oral administration, Mean.
Setting [2] is: male beagle dogs, single oral administration, Mean.

Broadly, the AUC(0-inf) is the area under the concentration-time curve extrapolated to infinity. For orientation: AUC(0-t) means exposure summed from dosing to a finite time, without extrapolation to infinity. A high value points to high exposure. The Cmax is the highest concentration seen after dosing. In general, MRT refers to the average time that molecules of a dose stay in the body. Usually Tmax stands for the time at which the peak concentration occurs. In general, half-life refers to the time in which the quantity being followed falls by half. Low values mean rapid decline, high ones slow decline. Under setting [1], `CCN1[C@@H](C(=O)NC23CCC(C(=O)O)(CC2)CC3)[C@H](c2cccc(Cl)c2F)[C@]2(C(=O)Nc3cc(Cl)ccc32)C12CCCCC2` [APG-115 hydrate] came in with an AUC(0-inf) of 33400 ng·h/mL, an AUC(0-t) of 4580 ng·h/mL, a Cmax of 136 ng/mL and an MRT of 31.4 h. Also, under setting [1], the Tmax was 6 h and the half-life is 346 h. The exposure in dogs result (dogs, oral, in words) was “very low”. Under setting [2], this compound showed a CL of 1.013 mL/min/kg and a Vd of 29.08877 L/kg.
